# Source: ChEMBL document CHEMBL3880382, “TRH-like peptide derivatives as inhibitors of the TRH-degrading ectoenzyme” (2010)
# Activity calls are given as the source filed them. The rule behind the calls is not given here. Non-standard residues stand in square brackets, D forms with d. Residues, ends and D or L forms follow the SMILES beside them. *: point of attachment. AMC = Cc1cc(=O)oc2cc(N*)ccc12; pGlu = O=C1CC[C@@H](C(=O)O)N1
# Legend:
# [1] = target: T1, Thyrotropin-releasing hormone receptor (Rattus norvegicus, UniProt Q01717); experiment: Displacement of [3H]-3MeHis-TRH from TRH receptor in Sprague-Dawley rat cortical membranes
# T1 sequence (Q01717 whole entry): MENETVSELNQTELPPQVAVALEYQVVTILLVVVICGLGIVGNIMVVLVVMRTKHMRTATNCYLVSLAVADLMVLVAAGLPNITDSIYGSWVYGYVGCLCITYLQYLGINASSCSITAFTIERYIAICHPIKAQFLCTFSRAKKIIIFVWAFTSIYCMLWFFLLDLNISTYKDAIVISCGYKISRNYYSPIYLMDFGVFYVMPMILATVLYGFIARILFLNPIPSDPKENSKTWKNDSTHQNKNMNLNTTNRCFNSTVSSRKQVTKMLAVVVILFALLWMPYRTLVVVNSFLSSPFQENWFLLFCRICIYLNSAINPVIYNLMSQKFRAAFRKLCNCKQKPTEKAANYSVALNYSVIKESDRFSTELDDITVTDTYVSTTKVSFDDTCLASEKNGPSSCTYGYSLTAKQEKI
# Rattus norvegicus [2] = experiment: Behavioral effect in cannulated Wistar rat assessed as number of wet dog shakes at 10 mg/kg, ip measured every 5 mins for 30 secs during 40 mins observation period; assay type: functional
# [3] = target: T2, Thyrotropin-releasing hormone-degrading ectoenzyme (Homo sapiens, UniProt Q9UKU6); experiment: Competitive inhibition of TRH-DE (unknown origin)
# T2 sequence (Q9UKU6 whole entry): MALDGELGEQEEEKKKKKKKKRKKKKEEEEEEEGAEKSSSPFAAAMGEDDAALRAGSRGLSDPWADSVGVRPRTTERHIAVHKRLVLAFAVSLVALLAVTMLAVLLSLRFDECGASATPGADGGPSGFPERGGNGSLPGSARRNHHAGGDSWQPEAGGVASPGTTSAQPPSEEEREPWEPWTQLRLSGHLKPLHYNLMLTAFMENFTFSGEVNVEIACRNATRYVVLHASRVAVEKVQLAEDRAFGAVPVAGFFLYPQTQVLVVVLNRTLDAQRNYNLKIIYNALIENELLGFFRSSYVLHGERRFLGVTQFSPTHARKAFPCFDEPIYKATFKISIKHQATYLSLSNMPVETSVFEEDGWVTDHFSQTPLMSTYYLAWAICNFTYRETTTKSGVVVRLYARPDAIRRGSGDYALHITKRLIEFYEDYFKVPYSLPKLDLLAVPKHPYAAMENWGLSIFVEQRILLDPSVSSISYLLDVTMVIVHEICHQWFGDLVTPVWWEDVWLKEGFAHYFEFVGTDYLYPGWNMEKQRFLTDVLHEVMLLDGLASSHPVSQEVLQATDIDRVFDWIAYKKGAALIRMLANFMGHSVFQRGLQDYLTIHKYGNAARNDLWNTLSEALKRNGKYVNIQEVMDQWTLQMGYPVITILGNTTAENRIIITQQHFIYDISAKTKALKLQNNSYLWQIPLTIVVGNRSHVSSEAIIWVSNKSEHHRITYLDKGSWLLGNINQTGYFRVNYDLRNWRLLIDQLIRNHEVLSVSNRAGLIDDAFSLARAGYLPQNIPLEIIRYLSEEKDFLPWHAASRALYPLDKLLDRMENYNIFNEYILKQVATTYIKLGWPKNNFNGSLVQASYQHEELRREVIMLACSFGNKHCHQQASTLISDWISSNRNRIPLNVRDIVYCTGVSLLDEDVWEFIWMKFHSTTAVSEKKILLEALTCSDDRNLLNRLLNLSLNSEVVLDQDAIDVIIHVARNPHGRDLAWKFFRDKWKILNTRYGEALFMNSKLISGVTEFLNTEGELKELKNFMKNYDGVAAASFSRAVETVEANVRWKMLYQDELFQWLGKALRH
# Rattus norvegicus [4] = experiment: In vivo inhibition of TRH-DE in cannulated Wistar rat assessed as increase in TRH-mediated chewing at 10 mg/kg, ip measured every 5 mins for 30 secs during 40 mins observation period; assay type: functional, organism-based
# Rattus norvegicus [5] = experiment: In vivo inhibition of TRH-DE in cannulated Wistar rat assessed as increase in TRH-mediated grooming at 10 mg/kg, ip measured every 5 mins for 30 secs during 40 mins observation period; assay type: functional, organism-based
# [6] = target: Thyrotropin releasing hormone degrading enzyme (Sus scrofa, UniProt A0A287AP33); experiment: Inhibition of pig brain TRH-DE using Glp-His-ProAMC as substrate by DPP-4-based continuous fluorometric method
# Rattus norvegicus [7] = experiment: In vivo inhibition of TRH-DE in cannulated Wistar rat assessed as increase in TRH-mediated wet dog shakes at 5 ug in 1 ul, icv followed by TRH addition measured after 30 mins relative to control; assay type: functional
# [8] = target: T3, Thyrotropin releasing hormone degrading enzyme (Sus scrofa) (UniProt A0A287AP33); experiment: Inhibition of pig brain TRH-DE at 1 uM using Glp-His-ProAMC as substrate by DPP-4-based continuous fluorometric method
# [9] = target: T3, Thyrotropin releasing hormone degrading enzyme (Sus scrofa); experiment: Reversible inhibition of pig brain TRH-DE using Glp-His-ProAMC as substrate at 1 uM preincubated for 75 mins by DPP-4-based continuous fluorometric method
# Rattus norvegicus [10] = experiment: In vivo inhibition of TRH-DE in cannulated Wistar rat assessed as increase in TRH-mediated sniffing at 10 mg/kg, ip measured every 5 mins for 30 secs during 40 mins observation period; assay type: functional, organism-based
# Rattus norvegicus [11] = experiment: In vivo inhibition of TRH-DE in cannulated Wistar rat assessed as increase in TRH-mediated wet dog shakes at 10 mg/kg, ip measured for last 25 mins of the 40 mins observation period; assay type: functional, organism-based
# T3 sequence (A0A287AP33 as listed by the source): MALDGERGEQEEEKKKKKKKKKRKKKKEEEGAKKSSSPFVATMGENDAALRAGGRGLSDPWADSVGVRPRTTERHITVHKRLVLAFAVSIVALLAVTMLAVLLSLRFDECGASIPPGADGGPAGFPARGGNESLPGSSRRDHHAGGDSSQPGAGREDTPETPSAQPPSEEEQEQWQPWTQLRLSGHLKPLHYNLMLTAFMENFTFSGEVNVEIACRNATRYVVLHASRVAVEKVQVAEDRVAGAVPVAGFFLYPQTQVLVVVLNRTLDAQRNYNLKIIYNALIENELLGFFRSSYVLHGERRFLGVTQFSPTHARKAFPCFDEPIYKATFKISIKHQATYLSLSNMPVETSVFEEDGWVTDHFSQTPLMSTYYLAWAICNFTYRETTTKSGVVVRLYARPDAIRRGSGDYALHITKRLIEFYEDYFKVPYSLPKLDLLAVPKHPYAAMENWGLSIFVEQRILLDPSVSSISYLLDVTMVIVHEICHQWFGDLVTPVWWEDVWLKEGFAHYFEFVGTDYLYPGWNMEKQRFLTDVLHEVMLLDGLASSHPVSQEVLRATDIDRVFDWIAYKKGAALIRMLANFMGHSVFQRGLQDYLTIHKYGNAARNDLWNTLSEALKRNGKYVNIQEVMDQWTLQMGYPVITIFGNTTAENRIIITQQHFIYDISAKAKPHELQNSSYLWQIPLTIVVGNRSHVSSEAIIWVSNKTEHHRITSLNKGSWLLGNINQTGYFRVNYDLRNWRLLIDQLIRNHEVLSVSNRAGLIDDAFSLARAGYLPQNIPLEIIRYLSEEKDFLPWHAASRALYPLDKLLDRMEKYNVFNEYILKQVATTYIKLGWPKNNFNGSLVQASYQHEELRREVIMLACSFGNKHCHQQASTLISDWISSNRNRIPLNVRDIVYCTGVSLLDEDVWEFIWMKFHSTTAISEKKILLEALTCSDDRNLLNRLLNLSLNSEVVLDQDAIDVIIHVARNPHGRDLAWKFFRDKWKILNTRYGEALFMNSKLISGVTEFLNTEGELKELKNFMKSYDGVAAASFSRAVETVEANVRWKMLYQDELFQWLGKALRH
# Chain of Thyrotropin releasing hormone degrading enzyme (A0A287AP33 whole entry): as the sequence (A0A287AP33 as listed by the source) above
SMILES,Ki [1] [µM],Activity (Rattus norvegicus [2]),Ki [3] [µM],inhibition (Rattus norvegicus [4]),inhibition (Rattus norvegicus [5]),Ki [6] [µM],fold change (FC) (Rattus norvegicus [7]),inhibition [8] [%],inhibition [9],inhibition (Rattus norvegicus [10]),inhibition (Rattus norvegicus [11])
O=C(O)C(Cc1ccccc1)N[C@@H](Cc1cn(Cc2ccccc2)cn1)C(=O)Nc1ccc2ccccc2c1 (some centres not stated),0.0224,0,8,–,–,–,–,–,–,–,–
Cc1cc(=O)oc2cc(NC(=O)[C@@H]3CCCN3C(=O)[C@H](CC(N)=O)NC(=O)[C@@H]3CCC(=O)N3)ccc12 ([pGlu]-Asn-Pro-{AMC}),47.9,–,–,Active,Active,0.41 to 0.97,18,50,Active,Active,Active
